Laboratory results from patent US8022091B2, “Triazole derivative” (Taisho Pharmaceutical Co., Ltd., priority 2006, dated 2011).
Several values for one entry are separate records, joined by “and”; a condition that tells them apart may be missing. Identical values can stand only once.

Assays:
human Edg-1 (S1P1) = target: T1, human Edg-1 (S1P1) (Homo sapiens, UniProt P21453); experiment: S1P1 binding assay: inhibition of [33P]-S1P binding to membrane fraction of HEK-293 cells transferred with the human Edg-1 (S1P1) gene; conditions: for IC50: [33P]-S1P 0.1 nM, human Edg-1 (S1P1) HEK-293 membrane fraction, 1 h at 30° C., read-out: IC50 (concentration at which binding in the absence of the test compound was inhibited by 50%); for inhibition at 10 µM: test compound at 10 μM, inhibition of [33P]-S1P binding to the membrane fraction of HEK-293 cells expressing human Edg-1 (S1P1)
T1 construct: expressed in transfected cells; host or cells: HEK-293
T1 sequence (P21453 whole entry): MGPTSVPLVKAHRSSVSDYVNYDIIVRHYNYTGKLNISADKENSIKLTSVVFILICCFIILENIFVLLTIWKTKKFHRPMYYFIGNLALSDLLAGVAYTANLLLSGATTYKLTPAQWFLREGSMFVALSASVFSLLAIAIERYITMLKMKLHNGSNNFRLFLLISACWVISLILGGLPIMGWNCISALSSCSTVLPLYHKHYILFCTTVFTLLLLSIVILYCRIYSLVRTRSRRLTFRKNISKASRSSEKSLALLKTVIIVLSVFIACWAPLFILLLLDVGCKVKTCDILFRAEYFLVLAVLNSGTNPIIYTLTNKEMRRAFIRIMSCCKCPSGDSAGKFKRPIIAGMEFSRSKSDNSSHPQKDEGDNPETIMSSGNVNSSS
In short: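 Membranes from S1P1-transfected HEK-293 cells incubated 1 h at 30° C in pH 7.4 Tris buffer with fatty acid-free BSA, 0.1 nM [33P]-S1P and test compound (0.1% DMSO). Filter-bound radioactivity was counted; inhibition corrected for binding to untransfected-cell membranes, and IC50 derived from concentration series.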

| SMILES | melting point [°C] | IC50 (human Edg-1 (S1P1)) | inhibition at 10 µM (human Edg-1 (S1P1)) [%] |
| --- | --- | --- | --- |
| CCc1ccc(Oc2nnc([C@@H](C)NS(=O)(=O)c3ccc(Cl)c(Cl)c3)n2CC)cc1 [Compound 24] | 172.5 to 173 | ≤ 0.01 µM | 101 |
| CCCc1ccc(Oc2nnc([C@@H](C)NS(=O)(=O)c3ccc(Cl)c(Cl)c3)n2CC)cc1 [Compound 25] | 155 to 156 | ≤ 0.035 µM | 97.5 |
| CCn1c(Oc2ccc(Cl)c(C)c2)nnc1[C@@H](C)NS(=O)(=O)c1ccc(Cl)c(Cl)c1 [Compound 26] | 159 to 164 | ≤ 0.035 µM | 97.9 |
| CCn1c(Oc2ccc(-n3cccc3)cc2)nnc1[C@@H](C)NS(=O)(=O)c1ccc(Cl)c(Cl)c1 [Compound 27] | 163 to 168 |  | 100 |
| CCn1c(Oc2cccc(N(C)C)c2)nnc1[C@@H](C)NS(=O)(=O)c1ccc(Cl)c(Cl)c1 [Compound 28] | 165 to 170 | 0.0031 µM | 104 |
| CCn1c(Oc2ccc(-c3ccccc3)cc2)nnc1[C@@H](C)NS(=O)(=O)c1ccc(Cl)c(Cl)c1 [Compound 29] | 177 to 178.5 |  | 101 |
| CCn1c(Oc2cc(Cl)cc(Cl)c2)nnc1[C@@H](C)NS(=O)(=O)c1ccc(Cl)c(Cl)c1 [Compound 30] | 212 to 216 |  | 100 |
| CCn1c(Oc2ccc(F)c(Cl)c2)nnc1[C@@H](C)NS(=O)(=O)c1ccc(Cl)c(Cl)c1 [Compound 31] | 143 to 146 |  | 101 |
| CCCCc1ccc(Oc2nnc([C@@H](C)NS(=O)(=O)c3ccc(Cl)c(Cl)c3)n2CC)cc1 [Compound 32] | 147 to 148 | ≤ 0.035 µM | 104 |
| CCn1c(Oc2ccc(OC(F)(F)F)cc2)nnc1[C@@H](C)NS(=O)(=O)c1ccc(Cl)c(Cl)c1 [Compound 33] | 173.5 to 174.5 |  | 101 |
| CCn1c(Oc2cccc(N3CCOCC3)c2)nnc1[C@@H](C)NS(=O)(=O)c1ccc(Cl)c(Cl)c1 [Compound 34] | 192.5 to 195.5 | 0.002 µM | 106 |
| CCn1c(Oc2ccc(OCCN(C)C)cc2)nnc1[C@@H](C)NS(=O)(=O)c1ccc(Cl)c(Cl)c1 [Compound 35] | 156 to 159 | ≤ 0.035 µM | 100 |
| CCn1c(Oc2ccc(OCCN3CCOCC3)cc2)nnc1[C@@H](C)NS(=O)(=O)c1ccc(Cl)c(Cl)c1 [Compound 36] | 125 to 130 | 0.0175 µM | 102 |
| CCn1c(Oc2ccc(F)c(C)c2)nnc1[C@@H](C)NS(=O)(=O)c1ccc(Cl)c(Cl)c1 [Compound 37] | 145 to 147 | ≤ 0.035 µM | 100 |
| COc1ccc(Oc2nnc([C@@H](C)NS(=O)(=O)c3ccc(Cl)c(Cl)c3)n2C2CC2)cc1 [Compound 38] | 148.5 to 150 | 0.0117 µM | 105 |
| CCn1c(Oc2ccc(C(C)C)cc2)nnc1[C@@H](C)NS(=O)(=O)c1ccc(Cl)c(Cl)c1 [Compound 39] | 176 to 178 | ≤ 0.01 µM | 98.5 |
| CCn1c(Oc2cccc(C(C)C)c2)nnc1[C@@H](C)NS(=O)(=O)c1ccc(Cl)c(Cl)c1 [Compound 40] | 155.5 to 156.5 | ≤ 0.01 µM | 106 |
| CCn1c(Oc2cccc3ccccc23)nnc1[C@@H](C)NS(=O)(=O)c1ccc(Cl)c(Cl)c1 [Compound 41] | 166 to 170 |  | 92 |
| CCn1c(Oc2ccc3ccccc3c2)nnc1[C@@H](C)NS(=O)(=O)c1ccc(Cl)c(Cl)c1 [Compound 42] | 176.5 to 179.5 | 0.022 µM | 102 |

| SMILES | melting point [°C] | IC50 (human Edg-1 (S1P1)) | inhibition at 10 µM (human Edg-1 (S1P1)) [%] |
| --- | --- | --- | --- |
| CCn1c(Oc2ccc(N(C)C)cc2)nnc1[C@@H](C)NS(=O)(=O)c1ccc(Cl)c(Cl)c1 [Compound 43] | 182.5 to 185 | ≤ 0.035 µM | 99.8 |
| CCn1c(Oc2ccc(F)c(F)c2)nnc1[C@@H](C)NS(=O)(=O)c1ccc(Cl)c(Cl)c1 [Compound 44] | 140 to 145.5 |  | 100 |
| CCn1c(Oc2ccc3sc(C)nc3c2)nnc1[C@@H](C)NS(=O)(=O)c1ccc(Cl)c(Cl)c1 [Compound 46] | 247 to 250 | ≤ 0.035 µM and 0.0285 µM | 94.6 |
| CCn1c(Oc2ccc(N3CCOCC3)cc2)nnc1[C@@H](C)NS(=O)(=O)c1ccc(Cl)c(Cl)c1 [Compound 47] | 191 to 192 |  | 102 |
| CCn1c(Oc2ccc(N3CCCCC3)cc2)nnc1[C@@H](C)NS(=O)(=O)c1ccc(Cl)c(Cl)c1 [Compound 48] | 195.5 to 196.5 |  | 96.7 |
| CCn1c(Oc2ccc(N3CCCC3)cc2)nnc1[C@@H](C)NS(=O)(=O)c1ccc(Cl)c(Cl)c1 [Compound 49] | 198 to 199 | 0.006 µM | 102 |
| CCn1c(Oc2cccnc2)nnc1[C@@H](C)NS(=O)(=O)c1ccc(Cl)c(Cl)c1 [Compound 50] | 129 to 130 |  | 92.9 |
| CCn1c(Oc2ccc(C)nc2)nnc1[C@@H](C)NS(=O)(=O)c1ccc(Cl)c(Cl)c1 [Compound 51] | 148.5 to 150.5 |  | 99.9 |
| CCn1c(Oc2ccc(N3CCN(C)CC3)cc2)nnc1[C@@H](C)NS(=O)(=O)c1ccc(Cl)c(Cl)c1 [Compound 52] | 203 to 205 |  | 100 |
| CCn1c(Oc2ccccn2)nnc1[C@@H](C)NS(=O)(=O)c1ccc(Cl)c(Cl)c1 [Compound 53] | 172 to 173 |  | 86.8 |
| CCn1c(Oc2ccc3ccncc3c2)nnc1[C@@H](C)NS(=O)(=O)c1ccc(Cl)c(Cl)c1 [Compound 54] | 192 to 193 |  | 104 |
| Cc1ccc(Oc2nnc([C@@H](C)NS(=O)(=O)c3ccc(Cl)c(Cl)c3)n2C)cc1 [Compound 58] | 181 to 183 |  | 99.7 |
| CCCn1c(Oc2ccc(C)cc2)nnc1[C@@H](C)NS(=O)(=O)c1ccc(Cl)c(Cl)c1 [Compound 59] | 169.5 to 170.5 |  | 94.3 |
| Cc1ccc(Oc2nnc([C@@H](C)NS(=O)(=O)c3ccc(Cl)c(Cl)c3)n2C(C)C)cc1 [Compound 60] | 192.5 to 195 |  | 98.9 |
| CCn1c(Oc2ccc(C)cc2)nnc1[C@H](C)NS(=O)(=O)c1ccc(Cl)c(Cl)c1 [Compound 62] | 186 to 188.5 |  | 83.5 |
| CCn1c(Oc2ccc3[nH]ccc3c2)nnc1[C@@H](C)NS(=O)(=O)c1ccc(Cl)c(Cl)c1 [Compound 63] | 216.5 to 217.5 |  | 105 |
| CCn1c(Oc2ccc3cc[nH]c3c2)nnc1[C@@H](C)NS(=O)(=O)c1ccc(Cl)c(Cl)c1 [Compound 64] | 223 to 224 | ≤ 0.035 µM | 101 |
| CCn1c(Oc2ccc3[nH]c(C)cc3c2)nnc1[C@@H](C)NS(=O)(=O)c1ccc(Cl)c(Cl)c1 [Compound 65] | 201 to 202 |  | 105 |
